# Assay results from ChEMBL document CHEMBL3045220, “Design, characterization, computational studies, and pharmacological evaluation of substituted-N-[(1E) substituted-phenylmethylidene]benzohydrazide analogs” (Med Chem Res, 2013).
# What was measured:
# [1] = system: Staphylococcus epidermidis; assay: Antibacterial activity against Staphylococcus epidermidis by agar well diffusion method; format: functional; conditions: for MIC: Staphylococcus epidermidis
# [2] = system: Candida albicans; assay: Antifungal activity against Candida albicans by agar well diffusion method; format: functional; conditions: for MIC: Candida albicans
# [3] = system: Staphylococcus aureus; assay: Antibacterial activity against Staphylococcus aureus by agar well diffusion method; format: functional; conditions: for MIC: Staphylococcus aureus
# [4] = system: Aspergillus niger; assay: Antifungal activity against Aspergillus niger by agar well diffusion method; format: functional; conditions: for MIC: Aspergillus niger
# [5] = system: Pseudomonas aeruginosa; assay: Antibacterial activity against Pseudomonas aeruginosa by agar well diffusion method; format: functional; conditions: for MIC: Pseudomonas aeruginosa
# [6] = Anti-inflammatory activity assessed as inhibition of albumin denaturation incubated for 15 min at 27 degC followed by incubation at 60 degC for 10 min by UV-Vis spectrophotometric analysis
# [7] = Antioxidant activity assessed as Mo(6) reduction activity after 60 min by UV-Vis spectrophotometric analysis; format: functional
# [8] = system: Escherichia coli; assay: Antibacterial activity against Escherichia coli by agar well diffusion method; format: functional; conditions: for MIC: Escherichia coli
# [9] = Antioxidant activity assessed as H2O2 scavenging activity after 10 min by UV-Vis spectrophotometric analysis; format: functional
smiles,measurement,setting,value
O=C(N/N=C/c1ccccc1O)c1ccc(Cl)cc1,-logMIC,[1],1.53
same,MIC,[1],34 µg/mL
same,-logMIC,[2],1.74
same,MIC,[2],55 µg/mL
same,-logMIC,[3],1.255
same,MIC,[3],18 µg/mL
same,-logMIC,[4],1
same,MIC,[4],10 µg/mL
same,-logMIC,[5],1.09
same,MIC,[5],12.5 µg/mL
same,IC50,[6],95 µg/mL
same,IC50,[7],50 µg/mL
same,-logMIC,[8],1.301
same,MIC,[8],20 µg/mL
same,IC50,[9],34 µg/mL
O=C(N/N=C/c1ccccc1)c1ccccc1C(=O)c1ccccc1,-logMIC,[1],1.69
same,MIC,[1],50 µg/mL
same,-logMIC,[2],2
same,MIC,[2],100 µg/mL
same,-logMIC,[3],1.477
same,MIC,[3],30 µg/mL
same,-logMIC,[5],0.81
same,MIC,[5],6.5 µg/mL
same,IC50,[6],105 µg/mL
same,IC50,[7],49 µg/mL
same,-logMIC,[8],1.924
same,MIC,[8],84 µg/mL
same,IC50,[9],152 µg/mL
O=C(N/N=C/c1ccc(Cl)cc1)c1ccccc1C(=O)c1ccccc1,-logMIC,[1],1.69
same,MIC,[1],50 µg/mL
same,-logMIC,[2],2.301
same,MIC,[2],200 µg/mL
same,-logMIC,[3],1.531
same,MIC,[3],34 µg/mL
same,-logMIC,[4],1.3
same,MIC,[4],20 µg/mL
same,-logMIC,[5],1.09
same,MIC,[5],12.5 µg/mL
same,IC50,[6],54 µg/mL
same,IC50,[7],20 µg/mL
same,-logMIC,[8],1.924
same,MIC,[8],84 µg/mL
same,IC50,[9],109 µg/mL
O=C(N/N=C/c1ccc([N+](=O)[O-])cc1)c1ccccc1C(=O)c1ccccc1,-logMIC,[1],1.47
same,MIC,[1],30 µg/mL
same,-logMIC,[2],1.924
same,MIC,[2],84 µg/mL
same,-logMIC,[3],1.531
same,MIC,[3],34 µg/mL
same,-logMIC,[4],1.4
same,MIC,[4],25 µg/mL
same,-logMIC,[5],1.3
same,MIC,[5],20 µg/mL
same,IC50,[6],17 µg/mL
same,IC50,[7],18 µg/mL
same,-logMIC,[8],1.397
same,MIC,[8],25 µg/mL
same,IC50,[9],125 µg/mL
Cc1ccc(/C=N/NC(=O)c2ccccc2C(=O)c2ccccc2)cc1,-logMIC,[1],2.3
same,MIC,[1],200 µg/mL
same,-logMIC,[2],1.698
same,MIC,[2],50 µg/mL
same,-logMIC,[3],1.531
same,MIC,[3],34 µg/mL
same,-logMIC,[5],1.4
same,MIC,[5],25 µg/mL
same,IC50,[6],12 µg/mL
same,IC50,[7],5 µg/mL
same,-logMIC,[8],2.225
same,MIC,[8],168 µg/mL
same,IC50,[9],84 µg/mL
COc1cc(/C=N/NC(=O)c2ccccc2C(=O)c2ccccc2)ccc1O,-logMIC,[1],2.3
same,MIC,[1],200 µg/mL
same,-logMIC,[2],1.301
same,MIC,[2],20 µg/mL
same,-logMIC,[3],1.531
same,MIC,[3],34 µg/mL
same,-logMIC,[4],1.4
same,MIC,[4],25 µg/mL
same,-logMIC,[5],1.69
same,MIC,[5],50 µg/mL
same,IC50,[6],10 µg/mL
same,IC50,[7],70 µg/mL
same,-logMIC,[8],1.698
same,MIC,[8],50 µg/mL
same,IC50,[9],79 µg/mL
O=C(N/N=C/c1ccc(O)cc1)c1ccccc1C(=O)c1ccccc1,-logMIC,[1],1.92
same,MIC,[1],84 µg/mL
same,-logMIC,[2],2
same,MIC,[2],100 µg/mL
same,-logMIC,[3],1.531
same,MIC,[3],34 µg/mL
same,-logMIC,[4],1.92
same,MIC,[4],84 µg/mL
same,-logMIC,[5],1.4
same,MIC,[5],25 µg/mL
same,IC50,[6],20 µg/mL
same,IC50,[7],100 µg/mL
same,-logMIC,[8],1.903
same,MIC,[8],80 µg/mL
same,IC50,[9],91 µg/mL
O=C(N/N=C/c1ccccc1[N+](=O)[O-])c1ccccc1C(=O)c1ccccc1,-logMIC,[1],1.47
same,MIC,[1],30 µg/mL
same,-logMIC,[2],1.397
same,MIC,[2],25 µg/mL
same,-logMIC,[3],1.255
same,MIC,[3],18 µg/mL
same,-logMIC,[5],1.4
same,MIC,[5],25 µg/mL
same,IC50,[6],75 µg/mL
same,IC50,[7],42 µg/mL
same,-logMIC,[8],1.301
same,MIC,[8],20 µg/mL
same,IC50,[9],101 µg/mL
O=C(N/N=C/c1ccccc1O)c1ccccc1C(=O)c1ccccc1,-logMIC,[1],1.53
same,MIC,[1],34 µg/mL
same,-logMIC,[2],2
same,MIC,[2],100 µg/mL
same,-logMIC,[3],1.301
same,MIC,[3],20 µg/mL
same,-logMIC,[4],1.53
same,MIC,[4],34 µg/mL
same,-logMIC,[5],1.09
same,MIC,[5],12.5 µg/mL
same,IC50,[6],35 µg/mL
same,IC50,[7],15 µg/mL
same,-logMIC,[8],1.531
same,MIC,[8],34 µg/mL
same,IC50,[9],132 µg/mL
COc1cc(/C=N/NC(=O)c2ccc(Cl)cc2)ccc1O,-logMIC,[1],2
same,MIC,[1],100 µg/mL
same,-logMIC,[2],1.924
same,MIC,[2],84 µg/mL
same,-logMIC,[3],1.255
same,MIC,[3],18 µg/mL
same,-logMIC,[4],1.69
same,MIC,[4],50 µg/mL
same,-logMIC,[5],1.4
same,MIC,[5],25 µg/mL
same,IC50,[6],160 µg/mL
same,IC50,[7],32 µg/mL
same,-logMIC,[8],1.531
same,MIC,[8],34 µg/mL
same,IC50,[9],0.5 µg/mL
O=C(N/N=C/c1ccc([N+](=O)[O-])cc1)c1ccc(Cl)cc1,MIC,[1],100 µg/mL
same,-logMIC,[2],1.301
same,MIC,[2],20 µg/mL
same,-logMIC,[3],1.301
same,MIC,[3],20 µg/mL
same,-logMIC,[5],1.3
same,MIC,[5],20 µg/mL
same,IC50,[6],85 µg/mL
same,IC50,[7],45 µg/mL
same,-logMIC,[8],1.531
same,MIC,[8],34 µg/mL
same,IC50,[9],1.8 µg/mL
Cc1ccc(/C=N/NC(=O)c2ccc(Cl)cc2)cc1,-logMIC,[1],2.3
same,MIC,[1],200 µg/mL
same,-logMIC,[2],1.301
same,MIC,[2],20 µg/mL
same,-logMIC,[3],1.477
same,MIC,[3],30 µg/mL
same,MIC,[4],10 µg/mL
same,-logMIC,[5],0.81
same,MIC,[5],6.5 µg/mL
same,IC50,[6],86 µg/mL
same,IC50,[7],42 µg/mL
same,-logMIC,[8],2.264
same,MIC,[8],184 µg/mL
same,IC50,[9],4.3 µg/mL
O=C(N/N=C/c1c(O)ccc2ccccc12)c1ccc(Cl)cc1,-logMIC,[1],2
same,MIC,[1],100 µg/mL
same,-logMIC,[2],1.531
same,MIC,[2],34 µg/mL
same,-logMIC,[3],1.477
same,MIC,[3],30 µg/mL
same,-logMIC,[4],2
same,MIC,[4],100 µg/mL
same,-logMIC,[5],1.4
same,MIC,[5],25 µg/mL
same,IC50,[6],80 µg/mL
same,IC50,[7],120 µg/mL
same,-logMIC,[8],1.924
same,MIC,[8],84 µg/mL
same,IC50,[9],69 µg/mL
O=C(N/N=C/c1cccc([N+](=O)[O-])c1)c1ccc(Cl)cc1,-logMIC,[1],1.69
same,MIC,[1],50 µg/mL
same,-logMIC,[2],1.531
same,MIC,[2],34 µg/mL
same,-logMIC,[3],1.301
same,MIC,[3],20 µg/mL
same,MIC,[4],10 µg/mL
same,-logMIC,[5],1.4
same,MIC,[5],25 µg/mL
same,IC50,[6],124 µg/mL
same,IC50,[7],30 µg/mL
same,-logMIC,[8],1.301
same,MIC,[8],20 µg/mL
same,IC50,[9],22 µg/mL
CC1(C)S[C@@H]2[C@H](NC(=O)[C@H](N)c3ccc(O)cc3)C(=O)N2[C@H]1C(=O)O [AMOXICILLIN],MIC,[1],100 µg/mL
same,MIC,[3],12.5 µg/mL
same,MIC,[5],200 µg/mL
same,MIC,[8],12.5 µg/mL
C=CC1=C(C(=O)O)N2C(=O)[C@@H](NC(=O)/C(=N\OCC(=O)O)c3csc(N)n3)[C@H]2SC1 [CEFIXIME],MIC,[1],400 µg/mL
same,MIC,[3],50 µg/mL
same,MIC,[5],400 µg/mL
same,MIC,[8],50 µg/mL
O=C(O)Cc1ccccc1Nc1c(Cl)cccc1Cl [DICLOFENAC],IC50,[6],71 µg/mL
OC(Cn1cncn1)(Cn1cncn1)c1ccc(F)cc1F [FLUCONAZOLE],MIC,[2],12.5 µg/mL
same,MIC,[4],400 µg/mL
